According to EPA's CvTdb concentration-time database:

What was measured:
[1] = test system: Rat; assay: concentration in plasma after dosing; settings: dosed: Isoeugenol, 17 mg/kg, oral, Female, F344/N
[2] = test system: Rat; assay: concentration in plasma after dosing; settings: dosed: Isoeugenol, 17 mg/kg, oral, Male, F344/N
[3] = test system: Rat; assay: concentration in plasma after dosing
[4] = test system: Rat; assay: concentration in plasma after dosing; settings: dosed: Isoeugenol, 17 mg/kg, oral, Male, F344/N; remark: listed apart in the source
[5] = test system: Rat; assay: concentration in plasma after dosing; settings: 0.5 h; dosed: Isoeugenol; 70 mg/kg; oral; Male; F344/N
[6] = test system: Rat; assay: concentration in plasma after dosing; settings: dosed: Isoeugenol, 70 mg/kg, oral, Male, F344/N
[7] = test system: Rat; assay: concentration in plasma after dosing; settings: dosed: Isoeugenol, 17 mg/kg, oral, Male, F344/N; remark: listed apart in the source
[8] = test system: Rat; assay: concentration in plasma after dosing; settings: dosed: Isoeugenol, 17 mg/kg, oral, Female, F344/N; remark: listed apart in the source
[9] = test system: Rat; assay: concentration in plasma after dosing; settings: dosed: Isoeugenol, 17 mg/kg, oral, Female, F344/N; remark: listed apart in the source
[10] = test system: Rat; assay: concentration in plasma after dosing; settings: 2 h; dosed: Tetralin; 2 mg/kg; iv; Male; F344
[11] = test system: Rat; assay: concentration in plasma after dosing; settings: 2 h; dosed: Tetralin; 2 mg/kg; iv; Male; Harlan Sprague Dawley
[12] = test system: Rat; assay: concentration in plasma after dosing; settings: dosed: Tetralin, 20 mg/kg, iv, Female, Harlan Sprague Dawley
[13] = test system: Rat; assay: concentration in plasma after dosing; settings: 1 h; dosed: Tetralin; 2 mg/kg; iv; Male; Harlan Sprague Dawley
[14] = test system: Rat; assay: concentration in plasma after dosing; settings: dosed: Tetralin, 20 mg/kg, iv, Female, Harlan Sprague Dawley; remark: listed apart in the source
[15] = test system: Rat; assay: concentration in plasma after dosing; settings: dosed: Tetralin, 2 mg/kg, iv, Male, F344
[16] = test system: Rat; assay: concentration in plasma after dosing; settings: dosed: Tetralin, 2 mg/kg, iv, Male, Harlan Sprague Dawley
[17] = test system: Rat; assay: concentration in plasma after dosing; settings: dosed: Tetralin, 20 mg/kg, iv, Female, Harlan Sprague Dawley; remark: listed apart in the source
[18] = test system: Rat; assay: concentration in plasma after dosing; settings: 4 h; dosed: Tetralin; 20 mg/kg; iv; Male; F344
[19] = test system: Rat; assay: concentration in plasma after dosing; settings: dosed: Tetralin, 20 mg/kg, iv, Female, Harlan Sprague Dawley; remark: listed apart in the source
[20] = test system: Rat; assay: concentration in plasma after dosing; settings: dosed: Tetralin, 2 mg/kg, iv, Male, F344; remark: listed apart in the source
[21] = test system: rat; assay: concentration in blood after dosing; settings: male

C/C=C/c1ccc(O)c(OC)c1 [Isoeugenol]
Settings	concentration in plasma [ng/mL]
[1], 1.5 h	52.9
[1], 5 min	355
[2], 0.5 h	95.4
[2], 2 h	30.2
[4], 1 h	39.5
[4], 6 h	27.7
[6], 5 h	106
[6], 5 min	1020
[7], 3 h	17.2
[7], 10 min	220
[8], 4 h	28.5
[8], 10 min	500
[9], 0.5 h	162
[9], 4 h	33.5

concentration in plasma [ng/mL], [3], dosed: Isoeugenol, oral, F344/N
Settings	Female	Male
0.5 h, 17 mg/kg	155	87.8
0.5 h, 70 mg/kg	–	312
0.75 h, 17 mg/kg	73.5	73
1 h, 17 mg/kg	57.7	34.4
1.5 h, 17 mg/kg	–	26.5
1.5 h, 70 mg/kg	–	118
2 h, 17 mg/kg	27.7	–
2 min, 17 mg/kg	48.3	53.9
2 min, 70 mg/kg	–	1160
3 h, 17 mg/kg	48.1	–
3 h, 70 mg/kg	–	216
4 h, 17 mg/kg	35.3	37.5
5 h, 17 mg/kg	50.1	–
5 h, 70 mg/kg	–	199
5 min, 17 mg/kg	346	141
5 min, 70 mg/kg	–	683
6 h, 17 mg/kg	32.7	27.6
6 h, 70 mg/kg	–	150
8 h, 17 mg/kg	38.5	–
8 h, 70 mg/kg	–	362
10 min, 17 mg/kg	161	148
10 min, 70 mg/kg	–	499
20 min, 17 mg/kg	358	86.1
20 min, 70 mg/kg	–	672

Settings	concentration in plasma [ng/mL]
[5]	469

c1ccc2c(c1)CCCC2 [Tetralin]
Settings	concentration in plasma [µg/g]
[10]	0.0271
[11]	0.0164
[13]	0.0313
[18]	0.15

concentration in plasma [µg/g], [3], dosed: Tetralin, iv
Settings	F344	Harlan Sprague Dawley
0.25 h, 20 mg/kg, Female	–	9.76
0.2517 h, 2 mg/kg, Male	0.888	–
0.2533 h, 2 mg/kg, Male	–	0.449
0.5033 h, 20 mg/kg, Female	–	2.55
0.505 h, 2 mg/kg, Male	–	0.207
0.5067 h, 2 mg/kg, Male	0.254	–
0.75 h, 2 mg/kg, Male	0.107	0.0681
0.75 h, 20 mg/kg, Female	–	2.11
1 h, 2 mg/kg, Male	0.11	0.0492
1 h, 20 mg/kg, Female	–	2.1
2 h, 2 mg/kg, Male	0.0262	0.0157
2 h, 20 mg/kg, Female	–	0.596
4 h, 2 mg/kg, Male	0.0114	0.0103
4 h, 20 mg/kg, Female	–	0.2
4 h, 20 mg/kg, Male	0.158	–
6 h, 2 mg/kg, Male	0.00667	0.00504
6.017 h, 20 mg/kg, Female	–	0.105
8 h, 2 mg/kg, Male	0.00488	0.00316
8 h, 20 mg/kg, Female	–	0.0424
12 h, 2 mg/kg, Male	0.00332	0.00151
12 h, 20 mg/kg, Female	–	0.0371
24 h, 2 mg/kg, Male	0.00081	–
24 h, 20 mg/kg, Female	–	0.00866
301 s, 20 mg/kg, Male	21	–
303 s, 20 mg/kg, Female	–	23.1
307 s, 2 mg/kg, Male	–	1.68
322 s, 2 mg/kg, Male	1.64	–

Settings	concentration in plasma [µg/g]
[12], 4 h	0.204
[12], 5 min	20.3
[14], 4 h	0.216
[14], 5 min	22.1
[15], 4 h	0.00972
[15], 308 s	1.77
[16], 0.75 h	0.0729
[16], 12 h	0.00211
[17], 0.505 h	5.59
[17], 8 h	0.077
[19], 0.75 h	2.18
[19], 12 h	0.0369
[20], 0.2517 h	0.63
[20], 6 h	0.00762

[3H][3H] [[3]H]
[21], dosed: benzo[a]pyrene, Sprague Dawley
Settings	concentration in blood [nM]
0 h, 1.70 nmol, iv	37.2
0 h, 3.20 nmol, oral	0.288
0 h, 4 nmol, oral	0.112
0.1116 h, 1.70 nmol, iv	12
0.1125 h, 1.70 nmol, iv	18.1
0.1153 h, 1.70 nmol, iv	8.27
0.1252 h, 1.70 nmol, iv	3.03
0.1473 h, 1.70 nmol, iv	12.7
0.1638 h, 4 nmol, oral	0.0356
0.1807 h, 4 nmol, oral	0.233
0.182 h, 1.70 nmol, iv	8.84
0.2047 h, 3.20 nmol, oral	0.443
0.3049 h, 1.70 nmol, iv	3.66
0.3458 h, 1.70 nmol, iv	3.2
0.4131 h, 3.20 nmol, oral	0.622
0.4184 h, 4 nmol, oral	0.364
0.4356 h, 4 nmol, oral	0.0332
0.443 h, 3.20 nmol, oral	0.188
0.6282 h, 4 nmol, oral	0.444
0.6407 h, 1.70 nmol, iv	2.67
0.6517 h, 3.20 nmol, oral	0.22
0.6678 h, 4 nmol, oral	0.0641
0.6836 h, 3.20 nmol, oral	0.741
0.6859 h, 1.70 nmol, iv	1.6
0.8687 h, 4 nmol, oral	0.516
0.9146 h, 1.70 nmol, iv	2.27
0.9355 h, 1.70 nmol, iv	0.81
0.9369 h, 4 nmol, oral	0.0732
0.9512 h, 3.20 nmol, oral	0.245
0.9543 h, 3.20 nmol, oral	0.873
1.04 h, 3.20 nmol, oral	0.279
1.135 h, 3.20 nmol, oral	0.947
1.371 h, 1.70 nmol, iv	1.8
1.4 h, 3.20 nmol, oral	0.297
1.416 h, 1.70 nmol, iv	0.882
1.435 h, 3.20 nmol, oral	1.17
1.639 h, 3.20 nmol, oral	0.347
1.858 h, 1.70 nmol, iv	1.32
1.88 h, 1.70 nmol, iv	0.331
1.886 h, 4 nmol, oral	0.208
1.95 h, 3.20 nmol, oral	1.17
2.33 h, 3.20 nmol, oral	0.383
2.464 h, 3.20 nmol, oral	1.19
2.498 h, 4 nmol, oral	0.817
3.067 h, 3.20 nmol, oral	1.37
3.756 h, 3.20 nmol, oral	0.16
3.763 h, 4 nmol, oral	0.0925
3.824 h, 1.70 nmol, iv	1.31
3.841 h, 1.70 nmol, iv	0.238
4.13 h, 4 nmol, oral	0.9
4.75 h, 3.20 nmol, oral	0.144
4.761 h, 3.20 nmol, oral	1.39
5.695 h, 4 nmol, oral	0.059
5.72 h, 3.20 nmol, oral	0.0876
5.758 h, 3.20 nmol, oral	1.58
5.767 h, 1.70 nmol, iv	0.231
5.852 h, 1.70 nmol, iv	1.2
7.678 h, 3.20 nmol, oral	0.0754
7.696 h, 3.20 nmol, oral	1.38
8.636 h, 1.70 nmol, iv	1.06
8.719 h, 1.70 nmol, iv	0.195
9.661 h, 3.20 nmol, oral	1.58
9.666 h, 3.20 nmol, oral	0.0665
11.66 h, 4 nmol, oral	0.971
11.69 h, 3.20 nmol, oral	1.46
11.71 h, 3.20 nmol, oral	0.0645
11.72 h, 4 nmol, oral	0.0461
12.06 h, 1.70 nmol, iv	0.983
23.76 h, 4 nmol, oral	0.0211
23.79 h, 3.20 nmol, oral	0.0341
23.82 h, 3.20 nmol, oral	1.25
23.82 h, 4 nmol, oral	0.858
28.68 h, 1.70 nmol, iv	0.0889
29.09 h, 1.70 nmol, iv	0.82
31.89 h, 3.20 nmol, oral	0.0299
153 s, 1.70 nmol, iv	38.5
172 s, 1.70 nmol, iv	16.8
225 s, 4 nmol, oral	0.176
238 s, 3.20 nmol, oral	0.0632
265 s, 1.70 nmol, iv	26.5
278 s, 1.70 nmol, iv	26.9
297 s, 3.20 nmol, oral	0.492
321 s, 3.20 nmol, oral	0.107
331 s, 4 nmol, oral	0.194

C=Cc1ccccc1 [styrene]
[21], dosed: styrene, 3000 ppm, dermal, duration: 4 hr, F344
Settings	concentration in blood [ng/mL]
0.5 h	1480
1 h	2090
2 h	4160
3 h	6070
4 h	7610
